The values below come from patent US6492405B2, “Nitric oxide donors and pharmaceutical compositions containing them” (Yissum Research Development Company of the Hebrew …, priority 1999, dated 2002).

For the experiment, the system named is vascular cGMP. Briefly: vasorelaxant activity measured as increase in vascular cGMP in rat aorta after i.v. push, before and after 18 hr continuous i.v. infusion. Conditions: for cGMP Post-infusion / cGMP Pre-infusion: rat aorta, i.v. push, nitroglycerin equimolar doses; for cGMP Post-infusion: after 18 hr continuous i.v. infusion of the same compound; for cGMP Pre-infusion: before 18 hr continuous i.v. infusion. It counts as in vivo, male Sprague-Dawley rats. The protocol: Representative for the new compounds, the vasorelaxant activities (measured as the ability of the tested drug to induce an increase in vascular cGMP) of the example compounds 1 to 6 were determined and compared to activity of nitroglycerin under the same experimental conditions following single and sustained exposure of rats to the compound.
For this purpose the compound to be tested was administered, in each case, to 8 male Sprague-Dawley rats (300-400 g) before and after an 18 hr continuous intravenous infusion of the compound. […] After drug administration (i.v. push), the rat was sacrificed, the aorta immediately removed and processed for cGMP measurement as has been described in detail by us. All of the tested new compounds were utilized in nitroglycerin equimolar doses, either before of after the “tolerance” induction period.
The following table summarizes the results obtained following administration of either nitroglycerin or the tested compounds before and after an 18 hr continuous exposure to the same compound: […]

Regarding “1,1′-Bisthiomethyl-3,4-dihydroxy-cyclohexane-dinitrate ester [Compound 4]”, the “cGMP Post-infusion” value is reported as 169 ± 13 pmol/g tissue and the “cGMP Pre-infusion” value is recorded as 149 ± 11 pmol/g tissue.

For “1,2-Dihydroxy-dinitrate-6,8-dithiane [Compound 6]”, the “cGMP Post-infusion” value turned out to be 179 ± 12 pmol/g tissue and the “cGMP Pre-infusion” value was determined as 193 ± 17 pmol/g tissue.

`O=[N+]([O-])OCC1(CO[N+](=O)[O-])CCSSC1` [Compound 3, 1,1-Diemethanol-dinitrate-3,4-dithiane]: the “cGMP Post-infusion” value is reported as 174 ± 16 pmol/g tissue and the “cGMP Pre-infusion” value worked out at 171 ± 14 pmol/g tissue.

Consider `O=[N+]([O-])OCCCCCC1CCSS1` (centres unmarked) [Compound 5, Thioctyl Alcohol Nitrate Ester], for which the “cGMP Post-infusion” value is on record as 113 ± 11 pmol/g tissue and the “cGMP Pre-infusion” value came out at 123 ± 13 pmol/g tissue.

As to `O=[N+]([O-])OCC(CO[N+](=O)[O-])O[N+](=O)[O-]` [Nitroglycerin, nitroglycerin, reference compound], the “cGMP Post-infusion” value turned out to be 68 ± 9 pmol/g tissue and the “cGMP Pre-infusion” value was 153 ± 13 pmol/g tissue. Further, under “after 18 hr continuous in vivo administration”, the “tolerance to the cGMP-inducing activity” value is given as “developed early”.
